In one test the test system is HCT116 MAP3K1 KO cells. The test can be described thus: PrestoBlue growth inhibition assay. In kind it is cell-based. The text has this: (§1) To investigate the target dependency of 51-106 activity, MAP3K1 was genetically knocked out (KO) in HCT116 cells using CRISPR-Cas9 technology (Gene Editing and Screening Core Facility, Memorial Sloan Kettering Cancer Center). The HCT116 cell line was chosen because it is predominantly diploid, allowing for a more predictable outcome when utilizing CRISPR technology compared with cell lines with aneuploidy. […] Western blot analysis confirmed the absence of MAP3K1 protein expression in KO cells compared to non-targeting control (NTC) MAP3K1 wild-type (WT) cells (Figure 3C). The MAP3K1 primary antibody used binds to residues 50 and 100 of the N-terminus of MAP3K1. HCT116 MAP3K1 WT and MAP3K1 KO cells were subjected to PrestoBlue growth inhibition assay with 51-106 treatment. […] Further optimization of 51-106 and/or the use of emerging methods such as DNA-encoded library based screens followed by machine learning (DEL-ML) along with a comprehensive suite of biophysical and biochemical screens should be employed to develop a MAP3K1 chemical probe.
(§2) A suspension of in 90 μL media was plated per well in clear, flat-bottomed, sterile, 96-well tissue culture plates (Cat# 12-565-438; Fisher Scientific, Waltham, MA, USA). The cells were allowed to adhere overnight in a humidified 5% CO2 incubator at 37 °C. Drug working solutions were prepared from 10 mM DMSO (Cat# BP231; Fisher Scientific) stocks. Drugs were added in 6 dilutions in triplicates. Ten μL of the working solution was added to each well in the plate to yield a final concentration of 20—0.63 μM drug in 1% DMSO. Blank DMSO controls were also included. […] Fluorescence (Ex 560, Em 590) was measured on a plate reader (Spectramax M5e; Molecular Devices) to determine T0. […] Fluorescence was measured on a plate reader. Wells with 1% DMSO were used to determine T100. % Growth was calculated as [(Fluorescence read of a well − T0)/(T100 − T0)] ∗ 100. The data were plotted using Prism V 9.1.0, and the IC50 values were determined using a four-parameter Logistic Curve Fitting function.

The next test relates to HCT116 MAP3K1 WT cells. The test can be described thus: PrestoBlue growth inhibition assay. In kind it is cell-based. The conditions noted are these: Homo sapiens, HCT-116, 72 h.
Source text: as §1, §2

The results in this text go back to paper PMC12073402, “A Selective MAP3K1 Inhibitor Facilitates Discovery of NPM1 as a Member of the Network” (Molecules, 2025).

Usually IC50 stands for the concentration at which inhibition is half-maximal.

As for `Cn1cc(-c2cnc3ccc(NC(=O)Nc4ccc(F)c(C(F)(F)F)c4)cc3n2)cn1` [51-106, 1-(4-Fluoro-3-(trifluoromethyl)phenyl)-3-(3-(1-methyl-1H-pyrazol-4-yl)quinoxalin-6-yl)urea], the “increase in IC50 in MAP3K1 KO cells” value in the test on HCT116 MAP3K1 KO cells (HCT116 MAP3K1 KO versus WT) was 5 fold. For the same molecule, the IC50 with HCT116 MAP3K1 KO cells (Homo sapiens, HCT-116, 72 h, HCT116 MAP3K1 KO, 72 h, PrestoBlue) is ~8.9 µM; with HCT116 MAP3K1 WT cells, ~1.8 µM.
